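Where inhibition never reached the appropriate level, the endpoint shown equals the highest concentration tested. Otherwise, values were interpolated linearly from a five-concentration, 48-hour dose response in 96-well plates. The concentration for 50% growth inhibition is given as GI50.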 Active and inactive are the calls of the source. Cut-off read from the data, not from the text of the source: active = GI50 up to about 1.1 µM and inactive = higher. Peptide text beside a SMILES is read from it. * marks the point of attachment. X27 = Clc1c(Cl)c(Cl)c(O*)c(Cl)c1Cl; Boc = CC(C)(C)OC(=O)*; OBn = c1ccc(CO*)cc1; Bn = c1ccc(C*)cc1
Legend:
Assay in all cases: DTP human tumour cell line panel, 48 h
UO-31 = system: UO-31
RPMI-8226 = system: RPMI-8226
MDA-N = system: MDA-N
U-251 = system: U-251
NCI/ADR-RES = system: NCI/ADR-RES
NCI-H23 = system: NCI-H23
HT-29 = system: HT-29
SK-OV-3 = system: SK-OV-3
SNB-19 = system: SNB-19
MDA-MB-435 = system: MDA-MB-435
CAKI-1 = system: CAKI-1
KM12 = system: KM12
OVCAR-5 = system: OVCAR-5
SNB-75 = system: SNB-75
MCF7 = system: MCF7
COLO 205 = system: COLO 205
UACC-62 = system: UACC-62
OVCAR-4 = system: OVCAR-4
SK-MEL-5 = system: SK-MEL-5
SR = system: SR
RXF 393 = system: RXF 393
EKVX = system: EKVX
ACHN = system: ACHN
IGROV-1 = system: IGROV-1
PC-3 = system: PC-3
SK-MEL-2 = system: SK-MEL-2
CCRF-CEM = system: CCRF-CEM
HCT-15 = system: HCT-15
SN12C = system: SN12C
Hs-578T = system: Hs-578T
NCI-H522 = system: NCI-H522
UACC-257 = system: UACC-257
SW-620 = system: SW-620
MDA-MB-231 = system: MDA-MB-231
SF-295 = system: SF-295
NCI-H460 = system: NCI-H460
LOX IMVI = system: LOX IMVI
HOP-92 = system: HOP-92
TK-10 = system: TK-10
DU-145 = system: DU-145
SF-268 = system: SF-268
SK-MEL-28 = system: SK-MEL-28
Malme-3M = system: Malme-3M
A549 = system: A549
OVCAR-8 = system: OVCAR-8
HCT-116 = system: HCT-116
M14 = system: M14
786-0 = system: 786-0
MOLT-4 = system: MOLT-4
K562 = system: K562
HCC 2998 = system: HCC 2998
OVCAR-3 = system: OVCAR-3
NCI-H226 = system: NCI-H226
SF-539 = system: SF-539
HL-60 = system: HL-60
HOP-62 = system: HOP-62
T47D = system: T47D
A498 = system: A498

Compound: COc1cc(C(=O)N2CCN(C(=O)c3cc(OC)c(OC)c(OC)c3)C2=S)cc(OC)c1OC
- GI50 (UO-31): 0.234 µM (active)
- GI50 (RPMI-8226): 3.66 µM (inactive)

Compound: CC(C)CC(NC(=O)C(CCC(=O)OCc1ccccc1)NC(=O)OC(C)(C)C)C(=O)NC(COCc1ccccc1)C(=O)NC(Cc1ccccc1)C(=O)Oc1c(Cl)c(Cl)c(Cl)c(Cl)c1Cl (configuration not stated) (Boc-E(OBn)LS(Bn)F-X27; configuration not given here)
- GI50 (MDA-N): 20 µM (inactive)
- GI50 (U-251): 18.5 µM (inactive)
- GI50 (NCI/ADR-RES): 27.4 µM (inactive)
- GI50 (NCI-H23): 16.1 µM (inactive)
- GI50 (HT-29): 35.6 µM (inactive)
- GI50 (SK-OV-3): 28.5 µM (inactive)
- GI50 (SNB-19): 28.7 µM (inactive)
- GI50 (MDA-MB-435): 26.2 µM (inactive)
- GI50 (CAKI-1): 21.2 µM (inactive)
- GI50 (KM12): 20.4 µM (inactive)
- GI50 (OVCAR-5): 25.3 µM (inactive)
- GI50 (SNB-75): 40.2 µM (inactive)
- GI50 (MCF7): 22.6 µM (inactive)
- GI50 (COLO 205): 26.2 µM (inactive)
- GI50 (UACC-62): 20.7 µM (inactive)
- GI50 (OVCAR-4): 35.6 µM (inactive)
- GI50 (SK-MEL-5): 18.4 µM (inactive)
- GI50 (SR): 29.2 µM (inactive)
- GI50 (RXF 393): 21.4 µM (inactive)
- GI50 (EKVX): 16 µM (inactive)
- GI50 (ACHN): 23.4 µM (inactive)
- GI50 (IGROV-1): 20.7 µM (inactive)
- GI50 (PC-3): > 100 µM (inactive)
- GI50 (SK-MEL-2): 34 µM (inactive)
- GI50 (CCRF-CEM): 26.7 µM (inactive)
- GI50 (HCT-15): 25.8 µM
- GI50 (SN12C): 29.1 µM (inactive)
- GI50 (Hs-578T): 25.1 µM (inactive)
- GI50 (UO-31): 22.2 µM (inactive)
- GI50 (NCI-H522): 21.9 µM (inactive)
- GI50 (UACC-257): 28.2 µM (inactive)
- GI50 (SW-620): > 100 µM (inactive)
- GI50 (MDA-MB-231): 15.6 µM (inactive)
- GI50 (SF-295): 25.5 µM (inactive)
- GI50 (NCI-H460): 27.2 µM (inactive)
- GI50 (LOX IMVI): > 100 µM (inactive)
- GI50 (HOP-92): 16.5 µM (inactive)
- GI50 (TK-10): 30.3 µM (inactive)
- GI50 (DU-145): 35.5 µM (inactive)
- GI50 (SF-268): 35.3 µM (inactive)
- GI50 (SK-MEL-28): 19.2 µM (inactive)
- GI50 (Malme-3M): 33.1 µM (inactive)
- GI50 (A549): 28.6 µM (inactive)
- GI50 (OVCAR-8): 27 µM (inactive)
- GI50 (HCT-116): 16.6 µM (inactive)
- GI50 (M14): 28 µM (inactive)
- GI50 (786-0): 35.7 µM (inactive)
- GI50 (MOLT-4): 22.6 µM (inactive)
- GI50 (RPMI-8226): 20.5 µM (inactive)

Compound: COc1cc(N(Cc2ccc3oc(=O)c(-c4ccccc4)nc3c2)Cc2ccc3oc(=O)c(-c4ccccc4)nc3c2)cc(OC)c1OC
- GI50 (MDA-N): > 10 µM (inactive)
- GI50 (U-251): > 10 µM (inactive)
- GI50 (NCI/ADR-RES): > 10 µM (inactive)
- GI50 (NCI-H23): > 10 µM (inactive)
- GI50 (HT-29): > 10 µM (inactive)
- GI50 (SK-OV-3): > 10 µM (inactive)
- GI50 (SNB-19): > 10 µM (inactive)
- GI50 (MDA-MB-435): > 10 µM (inactive)
- GI50 (CAKI-1): > 10 µM (inactive)
- GI50 (K562): > 10 µM (inactive)
- GI50 (HCC 2998): > 10 µM (inactive)
- GI50 (KM12): > 10 µM (inactive)
- GI50 (OVCAR-3): > 10 µM (inactive)
- GI50 (OVCAR-5): > 10 µM (inactive)
- GI50 (SNB-75): > 10 µM (inactive)
- GI50 (NCI-H226): > 10 µM (inactive)
- GI50 (MCF7): > 10 µM (inactive)
- GI50 (COLO 205): > 10 µM (inactive)
- GI50 (UACC-62): > 10 µM (inactive)
- GI50 (OVCAR-4): > 10 µM (inactive)
- GI50 (SK-MEL-5): > 10 µM (inactive)
- GI50 (SR): > 10 µM (inactive)
- GI50 (RXF 393): > 10 µM (inactive)
- GI50 (EKVX): > 10 µM (inactive)
- GI50 (ACHN): > 10 µM (inactive)
- GI50 (IGROV-1): > 10 µM (inactive)
- GI50 (PC-3): > 10 µM (inactive)
- GI50 (SK-MEL-2): > 10 µM (inactive)
- GI50 (CCRF-CEM): > 10 µM (inactive)
- GI50 (HCT-15): > 10 µM
- GI50 (SN12C): > 10 µM (inactive)
- GI50 (Hs-578T): > 10 µM (inactive)
- GI50 (UO-31): > 10 µM (inactive)
- GI50 (NCI-H522): > 10 µM (inactive)
- GI50 (UACC-257): > 10 µM (inactive)
- GI50 (SW-620): > 10 µM (inactive)
- GI50 (MDA-MB-231): > 10 µM (inactive)
- GI50 (SF-295): > 10 µM (inactive)
- GI50 (NCI-H460): > 10 µM (inactive)
- GI50 (LOX IMVI): > 10 µM (inactive)
- GI50 (HOP-92): > 10 µM (inactive)
- GI50 (SF-539): > 10 µM (inactive)
- GI50 (TK-10): > 10 µM (inactive)
- GI50 (HL-60): > 10 µM (inactive)
- GI50 (DU-145): > 10 µM (inactive)
- GI50 (SF-268): > 10 µM (inactive)
- GI50 (SK-MEL-28): > 10 µM (inactive)
- GI50 (HOP-62): > 10 µM (inactive)
- GI50 (T47D): > 10 µM (inactive)
- GI50 (A549): > 10 µM (inactive)
- GI50 (OVCAR-8): > 10 µM (inactive)
- GI50 (HCT-116): > 10 µM (inactive)
- GI50 (M14): > 10 µM (inactive)
- GI50 (786-0): > 10 µM (inactive)
- GI50 (MOLT-4): > 10 µM (inactive)
- GI50 (RPMI-8226): > 10 µM (inactive)

Compound: CSc1cc(Cl)c(C)cc1S(=O)(=O)NC(=O)NNc1cccc(C(F)(F)F)n1
- GI50 (MDA-N): > 100 µM (inactive)
- GI50 (U-251): > 100 µM (inactive)
- GI50 (NCI/ADR-RES): > 100 µM (inactive)
- GI50 (HT-29): > 100 µM (inactive)
- GI50 (SK-OV-3): > 100 µM (inactive)
- GI50 (SNB-19): > 100 µM (inactive)
- GI50 (MDA-MB-435): > 100 µM (inactive)
- GI50 (CAKI-1): > 100 µM (inactive)
- GI50 (K562): > 100 µM (inactive)
- GI50 (HCC 2998): > 100 µM (inactive)
- GI50 (KM12): > 100 µM (inactive)
- GI50 (OVCAR-3): > 100 µM (inactive)
- GI50 (OVCAR-5): > 100 µM (inactive)
- GI50 (SNB-75): 91.8 µM (inactive)
- GI50 (NCI-H226): > 100 µM (inactive)
- GI50 (MCF7): > 100 µM (inactive)
- GI50 (COLO 205): > 100 µM (inactive)
- GI50 (OVCAR-4): > 100 µM (inactive)
- GI50 (SK-MEL-5): > 100 µM (inactive)
- GI50 (SR): > 100 µM (inactive)
- GI50 (RXF 393): > 100 µM (inactive)
- GI50 (EKVX): > 100 µM (inactive)
- GI50 (ACHN): > 100 µM (inactive)
- GI50 (IGROV-1): > 100 µM (inactive)
- GI50 (PC-3): > 100 µM (inactive)
- GI50 (SK-MEL-2): > 100 µM (inactive)
- GI50 (CCRF-CEM): > 100 µM (inactive)
- GI50 (HCT-15): > 100 µM
- GI50 (SN12C): > 100 µM (inactive)
- GI50 (Hs-578T): > 100 µM (inactive)
- GI50 (NCI-H522): > 100 µM (inactive)
- GI50 (SW-620): > 100 µM (inactive)
- GI50 (MDA-MB-231): > 100 µM (inactive)
- GI50 (SF-295): > 100 µM (inactive)
- GI50 (NCI-H460): > 100 µM (inactive)
- GI50 (LOX IMVI): > 100 µM (inactive)
- GI50 (SF-539): 51.8 µM (inactive)
- GI50 (DU-145): > 100 µM (inactive)
- GI50 (SF-268): > 100 µM (inactive)
- GI50 (SK-MEL-28): > 100 µM (inactive)
- GI50 (HOP-62): > 100 µM (inactive)
- GI50 (T47D): > 100 µM (inactive)
- GI50 (Malme-3M): > 100 µM (inactive)
- GI50 (A549): > 100 µM (inactive)
- GI50 (OVCAR-8): > 100 µM (inactive)
- GI50 (HCT-116): > 100 µM (inactive)
- GI50 (M14): > 100 µM (inactive)
- GI50 (786-0): > 100 µM (inactive)
- GI50 (A498): > 100 µM (inactive)
- GI50 (MOLT-4): 20.9 µM (inactive)

Source: ChEMBL document CHEMBL1201862, “PubChem BioAssay data set” (2004)
